Test results reported in patent US5508180A, “Biocatalytic oxidation using soybean peroxidase” (Enzymol International, Inc., priority 1994, dated 1996).

Experiments:
soybean peroxidase [1] = molecular target: T1, soybean peroxidase (Glycine max, UniProt O22443); experiment: Chlorination of dimedone to 2-chlorodimedone catalyzed by soybean peroxidase; assay type: biochemical; conditions: for Absorbance Units at 307 nm: pH 2, 120 ppu SBP, 1 mM H2O2, room temperature
T1 construct: secreted heme glycoprotein, reported 37 kDa
Procedure: A stock solution (9.5 mM dimedone) was prepared by adding 1 g. 5,5-dimethyl-1,3-cyclohexane dione (dimedone) to […]. The solution was stirred to dissolve the dimedone and the pH adjusted to 2 with HCl. Chlorination of dimedone was catalyzed by soybean peroxidase (120 ppu) at pH 2 and 1 mM H2 O2. Increase in absorbance at 307 nm, corresponding to the absorbance maximum of 2-chlorodimedone was followed at room temperature and is shown in Table 9.
The effect of temperature on cholrination of dimedone was studied under these conditions. Reactions were performed as described above with increasing assay temperature.

soybean peroxidase [2] = molecular target: T1, soybean peroxidase; experiment: N-demethylation of N,N-dimethylanthranilic acid methyl ester by soybean peroxidase; assay type: biochemical
Procedure: N,N-Dimethylanthranilic acid methyl ester (DMA) and the product of N-demethylation, N-methylanthranilic acid methyl ester (NMA), were purchased from TCI America (Portland, Oreg.). […] Using 1 g. (5mM) DMA in 25 mM acetate, pH 4.5, 120 ppu SBP and 1 mM H202, the increases observed were: 295 nm - 0.727 AU per min; 379 nm -0.403 AU per min. To optimize N-demethylation, the effect of pH was studied using 25 mM buffers at the appropriate pH.

T1 sequence (O22443 27-332): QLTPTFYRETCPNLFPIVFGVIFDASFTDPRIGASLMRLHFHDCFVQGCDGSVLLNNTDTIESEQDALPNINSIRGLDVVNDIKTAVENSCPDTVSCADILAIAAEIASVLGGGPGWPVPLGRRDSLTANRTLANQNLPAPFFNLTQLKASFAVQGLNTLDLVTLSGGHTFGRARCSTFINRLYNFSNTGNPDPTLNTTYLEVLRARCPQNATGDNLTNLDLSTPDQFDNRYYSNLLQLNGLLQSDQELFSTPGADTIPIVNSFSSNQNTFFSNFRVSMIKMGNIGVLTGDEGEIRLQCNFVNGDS

Compound | dA per min at 307 nm (soybean peroxidase [1]; 25 °C, pH 2) | dA per min at 307 nm (soybean peroxidase [1]; 35 °C, pH 2) | dA per min at 307 nm (soybean peroxidase [1]; 45 °C, pH 2) | dA per min at 307 nm (soybean peroxidase [1]; 55 °C, pH 2) | dA per min at 307 nm (soybean peroxidase [1]; 65 °C, pH 2) | dA per min at 307 nm (soybean peroxidase [1]; 75 °C, pH 2) | optimal temperature of oxidative chlorination (soybean peroxidase [1]; pH 2) | Absorbance Units at 307 nm (soybean peroxidase [1]; time of reaction 0 min) [Absorbance Units] | Absorbance Units at 307 nm (soybean peroxidase [1]; time of reaction 1 min) [Absorbance Units] | Absorbance Units at 307 nm (soybean peroxidase [1]; time of reaction 2 min) [Absorbance Units] | Absorbance Units at 307 nm (soybean peroxidase [1]; time of reaction 3 min) [Absorbance Units] | Absorbance Units at 307 nm (soybean peroxidase [1]; time of reaction 7 min) [Absorbance Units] | increase in absorbance at 295 nm (soybean peroxidase [2]; 5mM DMA, 25 mM acetate pH 4.5, 120 ppu SBP, 1 mM H2O2) [AU per min] | dA per min at 379 nm (soybean peroxidase [2]; pH 1, 25 mM buffer) | dA per min at 379 nm (soybean peroxidase [2]; pH 2, 25 mM buffer) | dA per min at 379 nm (soybean peroxidase [2]; pH 3, 25 mM buffer) | dA per min at 379 nm (soybean peroxidase [2]; pH 4, 25 mM buffer) | dA per min at 379 nm (soybean peroxidase [2]; pH 5, 25 mM buffer) | dA per min at 379 nm (soybean peroxidase [2]; pH 6, 25 mM buffer) | dA per min at 379 nm (soybean peroxidase [2]; pH 7, 25 mM buffer)
CC1(C)CC(=O)CC(=O)C1 [dimedone, 5,5-dimethyl-1,3-cyclohexane dione] | 0.1066 | 0.1204 | 0.1962 | 0.1792 | 0.0155 | 0.0181 | about 45 °C | 0.175 | 0.275 | 0.510 | 0.800 | 0.868 |  |  |  |  |  |  |  | 
COC(=O)c1ccccc1N(C)C [DMA, N,N-Dimethylanthranilic acid methyl ester] |  |  |  |  |  |  |  |  |  |  |  |  | 0.727 | 0.005 | 0.2603 | 0.099 | 0.181 | 0.2401 | 0.1095 | 0.0065
